The term EC50 denotes the concentration giving half of the maximal effect.

One test has as its system SARS-CoV-2 strain USA-WA1/2020. The test can be described thus: microbe, parasite or virus in culture. Type of test: cell-based. The conditions noted are these: Severe acute respiratory syndrome coronavirus 2, HeLa-ACE2, 24 h, HeLa-ACE2 cells, SARS-CoV-2 infection, 24 h; cells given as a bound; read-out: EC50, uM (Hela).
For `CC(C)C[C@H](NC(=O)C(=O)Nc1ccccc1)C(=O)N[C@@H](C[C@@H]1CCNC1=O)C(O)COc1c(F)c(F)cc(F)c1F` (stereo partly drawn) [Compound 49, N1-((2S)-1-(((2S)-3-hydroxy-1-((S)-2-oxopyrrolidin-3-yl)-4-(2,3,5,6-tetrafluorophenoxy)butan-2-yl)amino)-4-methyl-1-oxopentan-2-yl)-N2-phenyloxalamide], the EC50 was more than 1 µM.

Consider `CC(C)C[C@H](CC(=O)NCc1c(F)cccc1F)C(=O)N[C@@H](C[C@@H]1CCNC1=O)C(=O)COc1c(F)c(F)cc(F)c1F` [Compound 55, (R)-N4-(2,6-difluorobenzyl)-2-isobutyl-N1-((S)-3-oxo-1-((S)-2-oxopyrrolidin-3-yl)-4-(2,3,5,6-tetrafluorophenoxy)butan-2-yl)succinamide], for which the half-maximal effective concentration (EC50) was more than 1 µM.

Staying with this test, now noted: Severe acute respiratory syndrome coronavirus 2, HeLa-ACE2, 24 h, HeLa-ACE2 cells, SARS-CoV-2 infection, 24 h; class symbols; read-out: EC50, uM (Hela).
As for `CC(C)C[C@H](NC(=O)C(=O)Nc1ccc2ccccc2c1)C(=O)N[C@@H](C[C@@H]1CCNC1=O)C(=O)COc1c(F)c(F)cc(F)c1F` [Compound 34, N1-((S)-4-methyl-1-oxo-1-(((S)-3-oxo-1-((S)-2-oxopyrrolidin-3-yl)-4-(2,3,5,6-tetrafluorophenoxy)butan-2-yl)amino)pentan-2-yl)-N2-(naphthalen-2-yl)oxalamide], the concentration for a half-maximal effect (EC50) lay within 0.05 to 0.2 µM.

For `O=C(Nc1ccccc1)C(=O)N[C@@H](CC1CCCCC1)C(=O)N[C@@H](C[C@@H]1CCNC1=O)C(=O)COc1c(F)c(F)cc(F)c1F` [Compound 35, N1-((S)-3-cyclohexyl-1-oxo-1-(((S)-3-oxo-1-((S)-2-oxopyrrolidin-3-yl)-4-(2,3,5,6-tetrafluorophenoxy)butan-2-yl)amino)propan-2-yl)-N2-phenyloxalamide], the EC50 is less than 0.05 µM.

In the case of `CC(C)CC[C@H](NC(=O)C(=O)Nc1ccccc1)C(=O)N[C@@H](C[C@@H]1CCNC1=O)C(=O)COc1c(F)c(F)cc(F)c1F` [Compound 36, N1-((S)-5-methyl-1-oxo-1-(((S)-3-oxo-1-((S)-2-oxopyrrolidin-3-yl)-4-(2,3,5,6-tetrafluorophenoxy)butan-2-yl)amino)hexan-2-yl)-N2-phenyloxalamide], the EC50 is less than 0.05 µM.

As for `Cc1ccccc1NC(=O)C(=O)N[C@@H](CC(C)C)C(=O)N[C@@H](C[C@@H]1CCNC1=O)C(=O)COc1c(F)c(F)cc(F)c1F` [Compound 37, N1-((S)-4-methyl-1-oxo-1-(((S)-3-oxo-1-((S)-2-oxopyrrolidin-3-yl)-4-(2,3,5,6-tetrafluoro-phenoxy)butan-2-yl)amino)pentan-2-yl)-N2-(o-tolyl)oxalamide], the EC50 is less than 0.05 µM.

Take `CC(C)C[C@H](NC(=O)C(=O)Nc1ccc(F)cc1)C(=O)N[C@@H](C[C@@H]1CCNC1=O)C(=O)COc1c(F)c(F)cc(F)c1F` [Compound 38, N1-(4-fluorophenyl)-N2-((S)-4-methyl-1-oxo-1-(((S)-3-oxo-1-((S)-2-oxopyrrolidin-3-yl)-4-(2,3,5,6-tetra-fluorophenoxy)butan-2-yl)amino)pentan-2-yl)oxalamide]: the EC50 was less than 0.05 µM.

Regarding `CC(C)C[C@H](NC(=O)C(=O)Nc1ccc(Cl)cc1)C(=O)N[C@@H](C[C@@H]1CCNC1=O)C(=O)COc1c(F)c(F)cc(F)c1F` [Compound 39, N1-(4-chlorophenyl)-N2-((S)-4-methyl-1-oxo-1-(((S)-3-oxo-1-((S)-2-oxopyrrolidin-3-yl)-4-(2,3,5,6-tetrafluorophenoxy)butan-2-yl)amino)pentan-2-yl)oxalamide], the half-maximal effective concentration (EC50) lay within 0.05 to 0.2 µM.

For the compound `CC(C)C[C@H](NC(=O)CNc1ccccc1)C(=O)N[C@@H](C[C@@H]1CCNC1=O)C(=O)COc1c(F)c(F)cc(F)c1F` [Compound 40, (S)-4-methyl-N-((S)-3-oxo-1-((S)-2-oxopyrrolidin-3-yl)-4-(2,3,5,6-tetrafluorophenoxy)butan-2-yl)-2-(2-(phenylamino)-acetamido)pentanamide], the EC50 is less than 0.05 µM.

Consider `CC(C)C[C@H](NC(=O)C(=O)NCCc1ccccc1)C(=O)N[C@@H](C[C@@H]1CCNC1=O)C(=O)COc1c(F)c(F)cc(F)c1F` [Compound 41, N1-((S)-4-methyl-1-oxo-1-(((S)-3-oxo-1-((S)-2-oxopyrrolidin-3-yl)-4-(2,3,5,6-tetrafluorophenoxy)butan-2-yl)amino)pentan-2-yl)-N2-phenethyloxalamide], for which the half-maximal effective concentration (EC50) was 0.05 to 0.2 µM.

For `CC(C)C[C@H](NC(=O)C(=O)NCc1ccccc1)C(=O)N[C@@H](C[C@@H]1CCNC1=O)C(=O)COc1c(F)c(F)cc(F)c1F` [Compound 42, N1-benzyl-N2-((S)-4-methyl-1-oxo-1-(((S)-3-oxo-1-((S)-2-oxopyrrolidin-3-yl)-4-(2,3,5,6-tetrafluoro-phenoxy)butan-2-yl)amino)pentan-2-yl)oxalamide], the EC50 is 0.05 to 0.2 µM.

As to `CC(C)C[C@H](NC(=O)C(=O)Nc1cccc(F)c1)C(=O)N[C@@H](C[C@@H]1CCNC1=O)C(=O)COc1c(F)c(F)cc(F)c1F` [Compound 43, N1-(3-fluorophenyl)-N2-((S)-4-methyl-1-oxo-1-(((S)-3-oxo-1-((S)-2-oxopyrrolidin-3-yl)-4-(2,3,5,6-tetrafluorophenoxy)butan-2-yl)amino)pentan-2-yl)oxalamide], the half-maximal effective concentration (EC50) was 0.05 to 0.2 µM.

For the compound `O=C(Nc1ccccc1)C(=O)N[C@@H](CC1CCCC1)C(=O)N[C@@H](C[C@@H]1CCNC1=O)C(=O)COc1c(F)c(F)cc(F)c1F` [Compound 44, N1-((S)-3-cyclopentyl-1-oxo-1-(((S)-3-oxo-1-((S)-2-oxopyrrolidin-3-yl)-4-(2,3,5,6-tetrafluorophenoxy)butan-2-yl)amino)propan-2-yl)-N2-phenyloxalamide], the EC50 is less than 0.05 µM.

As for `CC(C)C[C@H](NC(=O)C(=O)Nc1ccccn1)C(=O)N[C@@H](C[C@@H]1CCNC1=O)C(=O)COc1c(F)c(F)cc(F)c1F` [Compound 45, N1-((S)-4-methyl-1-oxo-1-(((S)-3-oxo-1-((S)-2-oxopyrrolidin-3-yl)-4-(2,3,5,6-tetrafluorophenoxy)butan-2-yl)amino)pentan-2-yl)-N2-(pyridin-2-yl)oxalamide], the EC50 is 0.05 to 0.2 µM.

As to `CC(C)C[C@H](NC(=O)C(=O)Nc1ccccc1Cl)C(=O)N[C@@H](C[C@@H]1CCNC1=O)C(=O)COc1c(F)c(F)cc(F)c1F` [Compound 46, N1-(2-chlorophenyl)-N2-((S)-4-methyl-1-oxo-1-(((S)-3-oxo-1-((S)-2-oxopyrrolidin-3-yl)-4-(2,3,5,6-tetrafluorophenoxy)butan-2-yl)amino)pentan-2-yl)oxalamide], the EC50 was less than 0.05 µM.

Turning to `CC(C)C[C@H](NC(=O)C(=O)Nc1c(F)cccc1F)C(=O)N[C@@H](C[C@@H]1CCNC1=O)C(=O)COc1c(F)c(F)cc(F)c1F` [Compound 47, N1-(2,6-difluorophenyl)-N2-((S)-4-methyl-1-oxo-1-(((S)-3-oxo-1-((S)-2-oxopyrrolidin-3-yl)-4-(2,3,5,6-tetrafluorophenoxy)butan-2-yl)amino)pentan-2-yl)oxalamide], the EC50 was less than 0.05 µM.

Consider `CC(C)C[C@H](NC(=O)C(=O)Nc1cccnc1C(F)(F)F)C(=O)N[C@@H](C[C@@H]1CCNC1=O)C(=O)COc1c(F)c(F)cc(F)c1F` [Compound 48, N1-((S)-4-methyl-1-oxo-1-(((S)-3-oxo-1-((S)-2-oxopyrrolidin-3-yl)-4-(2,3,5,6-tetrafluorophenoxy)butan-2-yl)amino)pentan-2-yl)-N2-(2-(trifluoromethyl)-pyridin-3-yl)oxalamide], for which the EC50 was less than 0.05 µM.

Consider `CC(C)C[C@H](NC(=O)C(=O)Nc1cccc2ccccc12)C(=O)N[C@@H](C[C@@H]1CCNC1=O)C(=O)COc1c(F)c(F)cc(F)c1F` [Compound 51, N1-((S)-4-methyl-1-oxo-1-(((S)-3-oxo-1-((S)-2-oxopyrrolidin-3-yl)-4-(2,3,5,6-tetrafluorophenoxy)butan-2-yl)amino)pentan-2-yl)-N2-(naphthalen-1-yl)oxalamide], for which the EC50 was less than 0.05 µM.

For `CC(C)C[C@H](NC(=O)C(=O)Nc1cccc(Cl)c1)C(=O)N[C@@H](C[C@@H]1CCNC1=O)C(=O)COc1c(F)c(F)cc(F)c1F` [Compound 52, N1-(3-chlorophenyl)-N2-((S)-4-methyl-1-oxo-1-(((S)-3-oxo-1-((S)-2-oxopyrrolidin-3-yl)-4-(2,3,5,6-tetrafluorophenoxy)butan-2-yl)amino)pentan-2-yl)oxalamide], the EC50 was 0.05 to 0.2 µM.

Turning to `CC(C)C[C@H](NC(=O)C(=O)Nc1ccc(F)c(F)c1)C(=O)N[C@@H](C[C@@H]1CCNC1=O)C(=O)COc1c(F)c(F)cc(F)c1F` [Compound 53, N1-(3,4-difluorophenyl)-N2-((S)-4-methyl-1-oxo-1-(((S)-3-oxo-1-((S)-2-oxopyrrolidin-3-yl)-4-(2,3,5,6-tetrafluorophenoxy)butan-2-yl)amino)pentan-2-yl)oxalamide], the EC50 is 0.05 to 0.2 µM.

As to `CC(C)C[C@H](NC(=O)C(=O)Nc1ccccc1Br)C(=O)N[C@@H](C[C@@H]1CCNC1=O)C(=O)COc1c(F)c(F)cc(F)c1F` [Compound 56, N1-(2-bromophenyl)-N2-((S)-4-methyl-1-oxo-1-(((S)-3-oxo-1-((S)-2-oxopyrrolidin-3-yl)-4-(2,3,5,6-tetrafluorophenoxy)butan-2-yl)amino)pentan-2-yl)oxalamide], the EC50 is 0.05 to 0.2 µM.

Staying with this test, now noted: Severe acute respiratory syndrome coronavirus 2, HeLa-ACE2, 24 h, read-out: EC50, uM (Hela).
On to `CC(C)C[C@H](CC(=O)NCc1ccccc1F)C(=O)N[C@@H](C[C@@H]1CCNC1=O)C(=O)COc1c(F)c(F)cc(F)c1F` [Compound 54, (R)-N4-(2-fluorobenzyl)-2-isobutyl-N1-((S)-3-oxo-1-((S)-2-oxopyrrolidin-3-yl)-4-(2,3,5,6-tetrafluorophenoxy)butan-2-yl)succinamide], for which the EC50 is more than 1 µM.

Staying with this test, now noted: Severe acute respiratory syndrome coronavirus 2, HeLa-ACE2, 24 h; read-out: EC50, uM (Hela).
For the compound `CC(C)C[C@H](NC(=O)c1cc2cc(F)ccc2[nH]1)C(=O)N[C@@H](C[C@@H]1CCNC1=O)C(=O)COP(=O)(c1ccccc1)c1ccccc1` [Compound 50, (S)-3-((S)-2-(5-fluoro-1H-indole-2-carboxamido)-4-methylpentanamido)-2-oxo-4-((S)-2-oxopyrrolidin-3-yl)butyl diphenylphosphinate], the EC50 was in the range of 0.2 to 0.5 µM.

Source of the values: patent publication US11708348B2, “Protease inhibitors for treatment of coronavirus infections” (The Scripps Research Institute, priority 2021, dated 2023).
